How the values were obtained:
Assay type in all cases: cell-based
[1] = test system: Bacillus cereus; experiment: Filter paper disc agar diffusion, antibacterial activity
Description: (§1) The pure bacterial cultures of test bacteria were procured from laboratory culture collection maintained at RRL, Jammu. The bacterial organisms were subcultured on L B. broth. Following filter paper disc agar diffusion method (Maruzella, J. C. and Henry, P. A. 1958, the antifungal activity of perfume oils. J. Amer. Pharm. Ass., 47:471-476).
(§2) 20 ml of sterilized medium was taken in each petriplate. After the agar has hardened, 2 ml of 24 hrs. broth culture of organism was added to each petriplate and mixed thoroughly by rotatory motion of the plate and allowed to set. The sterilized Whatman filter paper No. 1 discs (4 mm diameter) were thoroughly moistened with 5 μl of (+)-1-bisabolone of formula 1 in dilution of 1:50, 1:100 in the solvent Tween-80 and placed on the seeded agar plates. The standard antibiotic disc of ampicillin was placed on surface of each seeded petriplate as standard for anti-bacterial activity. Three each of seeded agar plates for each organism were incubated at 37° C. for 36 hrs. […] The zone of inhibition was measured with the help of a divider. The […] were performed in triplicate and average zones of inhibition for anti-bacterial activity are recorded in Table-2.

[2] = test system: Bacillus subtilis; experiment: as above
Description: as §1, §2

[3] = test system: Staphylococcus aureus; experiment: as above
Description: as §1, §2

[4] = test system: other test bacteria; experiment: In vitro antibacterial activity, other test bacteria
Description: as §1, §2

[5] = test system: gram positive bacteria; experiment: In vitro antibacterial activity compared with standard ampicillin
Description: as §1, §2

[6] = Pure 1, 4 mm disc, 37° C., 36 hrs
[7] = dilution 1:50 in Tween-80, 5 μl on 4 mm disc, 37° C., 36 hrs
[8] = dilution 1:100 in Tween-80, 5 μl on 4 mm disc, 37° C., 36 hrs
[9] = control (standard antibiotic disc of ampicillin)

**Q.** Which “in vitro antibacterial activity (in words)” value [1] does the source give for CC(C)=CCC[C@H](C)[C@H]1CCC(C)=CC1=O [(+)-1-bisabolone] here?
**A.** strongly active

**Q.** And the “Diameter (mm) of zone inhibition” value [1, 6]?
**A.** 21 mm

**Q.** What about the “Diameter (mm) of zone inhibition” value [1, 7] of the same compound?
**A.** 13 mm

**Q.** And the “Diameter (mm) of zone inhibition” value [1, 8]?
**A.** 9 mm

**Q.** And the “in vitro antibacterial activity (in words)” value [2]?
**A.** strongly active

**Q.** What about the “Diameter (mm) of zone inhibition” value [2, 6] of the same compound?
**A.** 19 mm

**Q.** What about the “Diameter (mm) of zone inhibition” value [2, 7] of the same compound?
**A.** 15 mm

**Q.** What about the “Diameter (mm) of zone inhibition” value [2, 8] of the same compound?
**A.** 13 mm

**Q.** What about the “in vitro antibacterial activity (in words)” value [3] of the same compound?
**A.** strongly active

**Q.** What about the “Diameter (mm) of zone inhibition” value [3, 6] of the same compound?
**A.** 24 mm

**Q.** What about the “Diameter (mm) of zone inhibition” value [3, 7] of the same compound?
**A.** 19 mm

**Q.** What about the “Diameter (mm) of zone inhibition” value [3, 8] of the same compound?
**A.** 13 mm

**Q.** And the “in vitro antibacterial activity (in words)” value [4]?
**A.** good to moderate activity

**Q.** And the “activity compared with the standard ampicillin” value [5]?
**A.** far better activity

**Q.** What does the source list for CC1(C)S[C@@H]2[C@H](NC(=O)[C@H](N)c3ccccc3)C(=O)N2[C@H]1C(=O)O [control, ampicillin, reference compound]?
**A.** Diameter (mm) of zone inhibition [1, 9]: 4 mm; Diameter (mm) of zone inhibition [2, 9]: 5 mm; Diameter (mm) of zone inhibition [3, 9]: 6 mm

Reference: patent US6787674B1, “(+)-1-Bisabolone isolated from cymbopogon flexuosus and antibacterial activity thereof” (Council of Scientific and Industrial Research, priority 2003, dated 2004)
